According to patent US20120076846A1, “Pyrethroid Compound, Preparation Process and Use Thereof” (priority 2009, published 2012):

Tests used:
[1] = tested on: Fly; assay: Efficacy of aerosol pesticide on fly (GB13917.2-92); assay type: in vivo; settings: 1 g sprayed
Method: (§1) Compound 1 (0.3 parts by weight) and kerosene (59.7 parts by weight) are mixed under heating to prepare a pesticide. The pesticide was placed in aerosol cans with a valve and then a mixture of propane and butane (40.0 parts by weight) was injected into tank through the valve at positive pressure to get an aerosol pesticide, which contains […] compound 1.
(§2) The efficacy of the aerosol pesticide on Mosquitoes, flies and blattella germanicas were tested according to GB13917.2-92. In particular, the test pests were placed into a tank. After all test pests restored normal activities, 1 g aerosol pesticide from aerosol cans was sprayed into the tank. Take the barrier plate away to make pests exposed to the aerosol pesticide and the number of killed pests was recorded at regular intervals, then all test pests were transferred to a clean cage after 20 mins, the number of dead pests was counted after 24 hours and the mortality of blattella germanicas at 72 h was determined.

[2] = tested on: Blattella germanica; assay: Efficacy of aerosol pesticide on blattella germanica (GB13917.2-92); assay type: in vivo; settings: 1 g sprayed
Method: as §1, §2

[3] = tested on: female Culex pipiens pallens; assay: Efficacy of pesticide incense coils on mosquito (GB13917.4-92, airtight cask); assay type: in vivo; settings: for relative efficacy compared with dimefluthrin: incense coil 0.04 w/w %, from KT50 of table 1; for KT50: pesticide incense coil, 0.04 w/w % active ingredient, ignited and removed after 1 min, 20 female mosquitoes
Method: To a mixture of corn starch, carbon powder and wood flour (1:5:4, 99.96 parts by weight) was added water (120 parts by weight) and the resulting mixture was kneaded, and then dried to give a pesticide incense coil substrate (diameter: 12.0 cm; thickness: 4 mm; one pair of substrates' weight: 40 g).
On the other hand, a 0.4 w/v % solution of compound 1 in kerosene was prepared.
The above solution (4 ml) was uniformly sprayed on the incense coil substrate with a micro-syringe, and then kept for airing at room temperature for 3 hours to get of a pesticide incense coil I containing compound 1 according to the present invention (0.04 w/w %).
Similarly, a 0.4 w/v % solution of compound 2 in kerosene was prepared and a pesticide incense coil II containing compound 2 (0.04 w/w %) was be obtained.
A 0.4 w/v % solution of compound 3 in kerosene was prepared and a pesticide incense coil III containing compound 3 (0.04 w/w %) was obtained;
A 0.4 w/v % solution of compound 4 in kerosene was prepared and a pesticide incense coil IV containing compound 4 (0.04 w/w %) was obtained;
A 0.4 w/v % solution of compound 6 in kerosene was prepared and a pesticide incense coil V containing compound 6 (0.04 w/w %) was obtained;
A 0.4 w/v % solution of dimefluthrin in kerosene was prepared and a pesticide incense coil VI containing dimefluthrin (0.04 w/w %) was obtained.
The efficacy of pesticide coils I-Vi on mosquito were tested and compared according to GB13917.4-92). In particular, the test pests are female Culex pipiens pallens (2-3 days old, fasten). Firstly, 20 test mosquitoes were captured and put into airtight cask testing device with a mosquito-sucking tube, a section of pesticide incense coil to be tested was put on shelves, then ignited and removed after 1 min.

[4] = tested on: sanitary pests; assay: Efficacy comparison of stereoisomers in controlling sanitary pests (experiments not detailed); settings: for efficacy of isomer relative to other isomers: qualitative statement from applicant's study
[5] = tested on: Mosquito; assay: Efficacy of aerosol pesticide on mosquito (GB13917.2-92); assay type: in vivo; settings: 1 g sprayed
Method: as §1, §2

[6] = tested on: Mosquito; assay: Volatile agent on filter paper hung on the door of a room, mosquito invasion; assay type: in vivo; settings: 1 mg on filter paper 20 cm×50 cm, volatilised at room temperature, hung on edge of door
Method: Compound 6 (2,3,5,6-tetrafluoro-4-methoxymethylbenzyl-1R, trans-(Z)-3-(3,3,3-trifluoro-1-prop ylene)-2,2-dimethylcyclopropane carboxylate, 1 mg) was dissolved in acetone (20 ml) to obtain a solution. The resulting solution was distributed on a filter paper (20 cm×50 cm) and air-dried to remove the acetone to obtain a volatile agent.

[7] = aerosol pesticide from compound 1 (0.3 parts by weight)
[8] = aerosol pesticide, 20 min exposure, 24 h

Row | Structure (SMILES) | relative efficacy compared with dimefluthrin [3] | KT50 [3] | efficacy of isomer relative to other isomers [4] | also measured
1 | COCc1c(F)c(F)c(COC(=O)[C@@H]2C(/C=C\C(F)(F)F)C2(C)C)c(F)c1F (stereo partly drawn) [Compound 1, 2,3,5,6-tetrafluoro-4-methoxymethylbenzyl-1R-(Z)-3-(3,3,3-trifluoro-1-propenyl)-2,2-dimethylcyclopropane carboxylate] | more than twice that of dimefluthrin | 3.2 min | highly active isomer | KT50 (mosquito/fly/cockroach) [1, 7]: 4.3 min; Mortality during 24 h [1, 8]: 100%; KT50 (mosquito/fly/cockroach) [2, 7]: 6.2 min; Mortality (72 h) ([2]; aerosol pesticide, 20 min exposure, 72 h): 90%; cross resistance compared to traditional pyrethroid products such as allethrin ([4]; control of sanitary pests): doesn't have cross resistance; KT50 (mosquito/fly/cockroach) [5, 7]: 4.8 min; Mortality during 24 h [5, 8]: 100%
2 | COCc1c(F)c(F)c(COC(=O)[C@@H]2C(/C=C/C(F)(F)F)C2(C)C)c(F)c1F (stereo partly drawn) [Compound 2, 2,3,5,6-tetrafluoro-4-methoxymethylbenzyl-1R-(E)-3-(3,3,3-trifluoro-1-propenyl)-2,2-dimethylcyclopropane carboxylate] | – | 5.2 min | – | –
3 | COCc1c(F)c(F)c(COC(=O)[C@H]2C(/C=C/C(F)(F)F)C2(C)C)c(F)c1F (stereo partly drawn) [Compound 4, 2,3,5,6-tetrafluoro-4-methoxymethylbenzyl-1S-(E)-3-(3,3,3-trifluoro-1-propenyl)-2,2-dimethylcyclopropane carboxylate] | – | 8.2 min | – | –
4 | COCc1c(F)c(F)c(COC(=O)[C@@H]2[C@@H](/C=C\C(F)(F)F)C2(C)C)c(F)c1F (relative stereo) [Compound 6, 2,3,5,6-tetrafluoro-4-methoxymethylbenzyl-1R, trans-(Z)-3-(3,3,3-trifluoro-1-propenyl)-2,2-dimethyl cyclopropane carboxylate] | more than twice that of dimefluthrin | 3.1 min | slightly better than the cis isomer | mosquito invasion of a room [6]: None mosquito invaded
5 | COCc1c(F)c(F)c(COC(=O)[C@H]2C(/C=C\C(F)(F)F)C2(C)C)c(F)c1F (stereo partly drawn) [Compound 3, 2,3,5,6-tetrafluoro-4-methoxymethylbenzyl-1S-(Z)-3-(3,3,3-trifluoro-1-propenyl)-2,2-dimethyl cyclopropane carboxylate] | – | 5.1 min | – | –
6 | COCc1c(F)c(F)c(COC(=O)C2C(C=C(C)C)C2(C)C)c(F)c1F (stereo not drawn) [Dimefluthrin, dimefluthrin, reference compound] | – | 7.6 min | – | –
